From ChEMBL document CHEMBL1201862, “PubChem BioAssay data set” (2004)
The source made the active and inactive calls.

Key:
[1] = RanGTP/importin-beta interaction disruptors – biochemical, plate reader, dry powder, dose response (AID 493048); parameters: species or system Homo sapiens
[2] = Cytotoxicity screening for potential Inhibitors of Bacterial Capsule Biogenesis. [Related pubchem assays (depositor defined):AID488970]; format: functional
[3] = reduction of Shn3 3'UTR-driven luciferase in osteoblasts – cell-based, Clone20 osteoblasts, firefly luciferase, cherry-picked, dose response (AID 624132); format: functional;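 also: firefly luciferase luminescence from reporter carrying the Shn3 3'UTR in osteoblasts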
[4] = loss of viability in HepG2 cells – cell-based, CellTiter-Glo, cherry-picked, cytotoxicity control for Shn3 inhibitor project, dose response (AID 624134); format: functional
[5] = non-specific 3'UTR reporter inhibition in Clone20-Shn3RL – cell-based, Renilla luciferase, cherry-picked, counter-screen for Shn3 inhibitor project, dose response (AID 624133); format: functional
[6] = viability loss in HeLa cells – cytotoxicity control for MgcRacGAP inhibitor project, dose response (AID 624300); format: functional
[7] = molecular target: T1, Rac GTPase-activating protein 1 (Homo sapiens, UniProt Q9H0H5); test: blockers of MgcRacGAP-driven Rac1 GTP hydrolysis – biochemical, ADP Hunter fluorescence, primary and confirmatory, confirmation (AID 624330); format: functional
T1 sequence (Q9H0H5 whole entry): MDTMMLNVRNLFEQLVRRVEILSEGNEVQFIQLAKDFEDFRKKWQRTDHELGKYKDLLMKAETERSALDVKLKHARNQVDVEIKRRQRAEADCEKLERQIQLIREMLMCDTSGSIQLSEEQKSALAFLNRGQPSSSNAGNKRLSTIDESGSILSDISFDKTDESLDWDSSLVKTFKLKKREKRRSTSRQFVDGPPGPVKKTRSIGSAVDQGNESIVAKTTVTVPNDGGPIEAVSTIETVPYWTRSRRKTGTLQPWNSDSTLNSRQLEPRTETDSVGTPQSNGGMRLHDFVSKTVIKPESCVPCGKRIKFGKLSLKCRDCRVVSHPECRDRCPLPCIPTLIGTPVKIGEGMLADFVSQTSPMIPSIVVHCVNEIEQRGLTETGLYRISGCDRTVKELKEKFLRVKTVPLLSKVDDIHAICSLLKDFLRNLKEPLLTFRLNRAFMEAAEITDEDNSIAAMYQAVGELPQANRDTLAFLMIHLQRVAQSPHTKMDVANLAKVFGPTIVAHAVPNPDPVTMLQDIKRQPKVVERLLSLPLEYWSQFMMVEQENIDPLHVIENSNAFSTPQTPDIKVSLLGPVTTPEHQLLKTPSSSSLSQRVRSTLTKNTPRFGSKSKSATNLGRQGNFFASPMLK

[8] = molecular target: T2, DNA repair protein RAD52 homolog (Homo sapiens, UniProt P43351); format: functional, biochemical
T2 sequence (P43351 whole entry): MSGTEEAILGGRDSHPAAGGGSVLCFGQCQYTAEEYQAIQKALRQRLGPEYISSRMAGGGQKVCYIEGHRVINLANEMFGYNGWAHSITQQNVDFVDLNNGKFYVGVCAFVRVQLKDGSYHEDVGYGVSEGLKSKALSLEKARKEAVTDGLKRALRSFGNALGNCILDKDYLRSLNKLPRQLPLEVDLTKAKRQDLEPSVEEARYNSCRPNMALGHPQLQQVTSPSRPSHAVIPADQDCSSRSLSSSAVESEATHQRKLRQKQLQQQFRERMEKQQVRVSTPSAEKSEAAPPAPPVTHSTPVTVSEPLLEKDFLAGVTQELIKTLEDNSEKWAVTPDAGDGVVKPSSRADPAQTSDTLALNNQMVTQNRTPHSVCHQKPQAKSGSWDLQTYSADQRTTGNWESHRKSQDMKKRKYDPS

Paired box protein Pax-8 = Paired box protein Pax-8 (Homo sapiens, UniProt Q06710); test: PAX8 transcriptional activity inhibition in RMG-I – RMG-I cells, luciferase, cherry-pick, dose response (AID 687027); format: functional, cell-based;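 also: luciferase reporter driven by Pax8 target thyroperoxidase promoter measured by SteadyGlo luminescence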
[9] = molecular target: T3, Histone-lysine N-methyltransferase NSD2 (Homo sapiens, UniProt O96028); format: biochemical
T3 sequence (O96028 whole entry): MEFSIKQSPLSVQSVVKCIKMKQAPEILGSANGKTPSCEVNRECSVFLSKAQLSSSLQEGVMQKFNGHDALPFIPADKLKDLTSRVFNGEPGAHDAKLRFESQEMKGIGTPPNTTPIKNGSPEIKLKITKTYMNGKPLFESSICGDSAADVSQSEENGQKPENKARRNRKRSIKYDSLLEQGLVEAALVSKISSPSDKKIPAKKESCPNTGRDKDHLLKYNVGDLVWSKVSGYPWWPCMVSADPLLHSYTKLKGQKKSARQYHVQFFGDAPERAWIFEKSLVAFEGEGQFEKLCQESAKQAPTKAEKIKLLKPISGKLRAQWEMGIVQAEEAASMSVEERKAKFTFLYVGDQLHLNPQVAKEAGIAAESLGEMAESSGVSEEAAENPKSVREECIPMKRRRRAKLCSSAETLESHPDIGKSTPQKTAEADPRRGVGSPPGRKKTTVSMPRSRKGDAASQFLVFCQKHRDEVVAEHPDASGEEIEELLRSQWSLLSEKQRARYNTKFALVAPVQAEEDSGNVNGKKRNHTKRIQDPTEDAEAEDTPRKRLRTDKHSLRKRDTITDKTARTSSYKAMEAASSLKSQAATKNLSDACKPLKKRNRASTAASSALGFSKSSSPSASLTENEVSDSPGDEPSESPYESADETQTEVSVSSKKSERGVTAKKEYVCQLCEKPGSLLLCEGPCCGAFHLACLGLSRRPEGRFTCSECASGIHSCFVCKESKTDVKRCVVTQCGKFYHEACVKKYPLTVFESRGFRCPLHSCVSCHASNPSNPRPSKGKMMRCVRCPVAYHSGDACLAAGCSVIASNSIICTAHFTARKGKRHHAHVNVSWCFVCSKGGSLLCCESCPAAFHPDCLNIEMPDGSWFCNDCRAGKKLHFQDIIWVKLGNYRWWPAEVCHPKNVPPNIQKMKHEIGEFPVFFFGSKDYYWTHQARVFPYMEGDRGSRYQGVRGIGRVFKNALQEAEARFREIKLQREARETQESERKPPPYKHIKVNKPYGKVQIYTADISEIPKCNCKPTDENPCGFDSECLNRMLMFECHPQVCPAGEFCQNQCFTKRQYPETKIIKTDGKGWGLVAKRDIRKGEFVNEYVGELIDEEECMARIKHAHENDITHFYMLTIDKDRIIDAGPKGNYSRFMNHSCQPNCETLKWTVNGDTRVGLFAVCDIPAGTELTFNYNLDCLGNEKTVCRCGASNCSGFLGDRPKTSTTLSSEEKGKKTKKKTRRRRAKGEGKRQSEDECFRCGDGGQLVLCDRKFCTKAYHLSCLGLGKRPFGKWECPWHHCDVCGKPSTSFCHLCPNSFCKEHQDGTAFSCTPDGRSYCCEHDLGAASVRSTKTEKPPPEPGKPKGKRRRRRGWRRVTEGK

[10] = Luminescence-based cell-based high throughput dose response assay to identify activators of the DAF-12 from the parasite S. stercoralis (ssDAF-12).; format: functional
[11] = molecular target: T4, Oxysterols receptor LXR-beta (Homo sapiens, UniProt P55055); test: LXR agonists, Gal4 luciferase reporter, dose response, counter-screen for ssDAF-12 agonist project, cell-based, luminescence, HEK293, S. stercoralis campaign (AID 720737); format: functional; details: read-out: IC50 (the source's name)
T4 sequence (P55055 whole entry): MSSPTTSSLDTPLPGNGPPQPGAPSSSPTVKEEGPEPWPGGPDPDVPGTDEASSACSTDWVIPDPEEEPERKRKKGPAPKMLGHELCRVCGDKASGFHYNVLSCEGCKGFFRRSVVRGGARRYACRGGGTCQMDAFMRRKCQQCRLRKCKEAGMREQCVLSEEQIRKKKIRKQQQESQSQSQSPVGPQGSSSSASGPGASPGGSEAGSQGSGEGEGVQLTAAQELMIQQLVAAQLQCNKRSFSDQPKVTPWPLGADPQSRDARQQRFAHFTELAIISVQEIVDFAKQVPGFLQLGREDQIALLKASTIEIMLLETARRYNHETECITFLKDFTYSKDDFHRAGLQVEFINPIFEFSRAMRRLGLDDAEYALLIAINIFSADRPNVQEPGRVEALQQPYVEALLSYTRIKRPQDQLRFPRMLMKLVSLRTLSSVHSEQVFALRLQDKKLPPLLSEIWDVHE

[12] = molecular target: T5, Mannose-6-phosphate isomerase (Homo sapiens, UniProt P34949); test: phosphomannose isomerase inhibition – biochemical, fluorescence intensity, confirmation (AID 1535)
T5 sequence (P34949 whole entry): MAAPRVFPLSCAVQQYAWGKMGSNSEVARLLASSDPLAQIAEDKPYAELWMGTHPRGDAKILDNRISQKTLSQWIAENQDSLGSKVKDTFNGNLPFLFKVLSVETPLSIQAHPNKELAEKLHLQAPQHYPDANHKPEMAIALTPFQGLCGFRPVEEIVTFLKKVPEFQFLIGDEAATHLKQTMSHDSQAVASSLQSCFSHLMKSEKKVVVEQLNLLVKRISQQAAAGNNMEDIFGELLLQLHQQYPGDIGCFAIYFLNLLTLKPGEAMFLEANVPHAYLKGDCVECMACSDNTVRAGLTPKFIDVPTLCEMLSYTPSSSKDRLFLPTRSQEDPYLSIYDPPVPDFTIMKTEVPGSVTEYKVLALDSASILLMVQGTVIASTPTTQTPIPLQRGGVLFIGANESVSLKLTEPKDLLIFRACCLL

Phosphomannomutase 2 = Phosphomannomutase 2 (Homo sapiens, UniProt O15305); test: Counter screen SAR assay for PMM2 inhibitors via a fluorescence intensity assay. [Related pubchem assays (depositor defined):AID1545, AID1574]
[13] = molecular target: Phosphoethanolamine/phosphocholine phosphatase (Homo sapiens, UniProt Q8TCT1); test: SAR assay for compounds that inhibit PHOSPHO1. [Related pubchem assays (depositor defined):AID1545, AID1565, AID1574]
Phosphoethanolamine/phosphocholine phosphatase, sequence (Q8TCT1 whole entry): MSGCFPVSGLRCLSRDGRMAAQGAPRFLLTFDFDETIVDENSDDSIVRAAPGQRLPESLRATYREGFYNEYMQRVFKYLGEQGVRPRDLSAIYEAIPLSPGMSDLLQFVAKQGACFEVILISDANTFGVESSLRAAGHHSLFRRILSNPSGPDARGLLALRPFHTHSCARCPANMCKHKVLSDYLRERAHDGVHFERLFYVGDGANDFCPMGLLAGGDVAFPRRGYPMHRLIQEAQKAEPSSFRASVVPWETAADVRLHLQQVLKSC

Paired box protein Pax-8, sequence (Q06710 whole entry): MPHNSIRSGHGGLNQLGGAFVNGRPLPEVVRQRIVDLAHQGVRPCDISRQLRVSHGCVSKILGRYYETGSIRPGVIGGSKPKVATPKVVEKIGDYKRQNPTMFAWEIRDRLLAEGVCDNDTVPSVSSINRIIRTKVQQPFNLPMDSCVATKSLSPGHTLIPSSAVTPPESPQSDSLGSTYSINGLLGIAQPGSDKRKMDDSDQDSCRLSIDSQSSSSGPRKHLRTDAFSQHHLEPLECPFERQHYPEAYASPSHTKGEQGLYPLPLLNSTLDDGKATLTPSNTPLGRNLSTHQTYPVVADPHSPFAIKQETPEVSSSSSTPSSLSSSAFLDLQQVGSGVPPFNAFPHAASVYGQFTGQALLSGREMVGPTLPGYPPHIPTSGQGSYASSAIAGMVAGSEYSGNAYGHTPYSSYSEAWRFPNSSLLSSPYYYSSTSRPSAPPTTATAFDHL
Phosphomannomutase 2, sequence (O15305 whole entry): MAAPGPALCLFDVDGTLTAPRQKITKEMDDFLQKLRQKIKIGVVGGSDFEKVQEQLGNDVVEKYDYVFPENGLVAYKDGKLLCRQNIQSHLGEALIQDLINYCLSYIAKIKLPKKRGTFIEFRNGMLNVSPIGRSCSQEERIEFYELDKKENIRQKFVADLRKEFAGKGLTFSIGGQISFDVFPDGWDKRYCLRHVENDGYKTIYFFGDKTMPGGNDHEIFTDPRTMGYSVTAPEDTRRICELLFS

SMILES: Cc1ccc(S(=O)(=O)c2cc3c(=O)n4cccc(C)c4nc3n(C3CCCCC3)c2=N)cc1
- AC50 [1]: 410 µM (active)

SMILES: CCN(CC)CCCNc1[nH]c2ccccc2c2nc3ccc(OC)cc3c1-2
- CC50 [2]: 1.41 µM (active)
- AC50 [3]: 12.3 µM (active)
- AC50 [4]: 4.9 µM (active)
- AC50 [5]: 11.6 µM (active)
- CC50 [6]: 15.1 µM (active)
- IC50 [7]: 31.7 µM (active)
- AC50 [8]: < 0.15 µM (active)
- AC50 (Paired box protein Pax-8): 6.91 µM (active)
- AC50 [9]: > 20 µM (inactive)
- IC50 [10]: > 67.5 µM (inactive)
- EC50 [11]: > 67.5 µM (inactive)

SMILES: O=c1c2ccccc2sn1-c1ccc(F)c(Cl)c1
- IC50 [12]: > 50 µM (inactive)
- IC50 (Phosphomannomutase 2): > 100 µM (inactive)
- IC50 [13]: 1.79 µM (inactive)
